ChEMBL document CHEMBL1201862, “PubChem BioAssay data set” (2004)
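Protocol summary: plate cells (96-well), add compound at 5 concentrations, incubate 48 h, interpolate endpoints linearly. GI50: concentration for 50% inhibition of growth.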 Calls of active or inactive are those of the source. Cut-off read from the data, not from the text of the source: active = GI50 up to about 1.1 µM and inactive = higher.

Tests used:
Test in all cases: NCI-60 cell line screen, 48 h
NCI-H460 = test system: NCI-H460
MDA-N = test system: MDA-N
HT-29 = test system: HT-29
EKVX = test system: EKVX
DU-145 = test system: DU-145
786-0 = test system: 786-0
SW-620 = test system: SW-620
SK-MEL-28 = test system: SK-MEL-28
SF-295 = test system: SF-295
SNB-75 = test system: SNB-75
SF-268 = test system: SF-268
MDA-MB-435 = test system: MDA-MB-435
KM12 = test system: KM12
PC-3 = test system: PC-3
T47D = test system: T47D
NCI-H23 = test system: NCI-H23
HCC 2998 = test system: HCC 2998
IGROV-1 = test system: IGROV-1
LOX IMVI = test system: LOX IMVI
U-251 = test system: U-251

| SMILES | GI50 (NCI-H460) | GI50 (MDA-N) | GI50 (HT-29) | GI50 (EKVX) | GI50 (DU-145) | GI50 (786-0) | GI50 (SW-620) | GI50 (SK-MEL-28) | GI50 (SF-295) | GI50 (SNB-75) | GI50 (SF-268) | GI50 (MDA-MB-435) | GI50 (KM12) | GI50 (PC-3) | GI50 (T47D) | GI50 (NCI-H23) | GI50 (HCC 2998) | GI50 (IGROV-1) | GI50 (LOX IMVI) | GI50 (U-251) |
| --- | --- | --- | --- | --- | --- | --- | --- | --- | --- | --- | --- | --- | --- | --- | --- | --- | --- | --- | --- | --- |
| On1c(-c2ccccc2)nc2ccccc2c1=S | 0.583 µM (active) | 18.9 µM (inactive) | 6.64 µM (inactive) | 10.3 µM (inactive) | 7.64 µM (inactive) | 3.95 µM (inactive) | 6.82 µM (inactive) | 7.41 µM (inactive) | 2.7 µM (inactive) | 19.3 µM (inactive) | 3.47 µM (inactive) | 7.43 µM (inactive) | 3.18 µM (inactive) | 3.61 µM (inactive) | 3.37 µM (inactive) | 3.43 µM (inactive) | 2.4 µM (inactive) | 0.493 µM (active) | 0.632 µM (active) | 4.95 µM (inactive) |
| CCC(C)(O)c1cnc(CC(C)C)c(=O)n1O (stereo not given) | 28.1 µM (inactive) | 73.5 µM (inactive) | 38.5 µM (inactive) | 49.4 µM (inactive) | > 100 µM (inactive) | 57.7 µM (inactive) | 37.1 µM (inactive) | 63.5 µM (inactive) | 36.6 µM (inactive) | 31.6 µM (inactive) | 36.8 µM (inactive) | 57.7 µM (inactive) | 37.7 µM (inactive) | 48.3 µM (inactive) | 59.4 µM (inactive) | 78.2 µM (inactive) | 40.7 µM (inactive) | 63 µM (inactive) | 33.8 µM (inactive) | 47.9 µM (inactive) |
| CC(C)(C)C(=O)C(C(=O)c1ccccc1)C(=O)C(C)(C)C | > 100 µM (inactive) | > 100 µM (inactive) | > 100 µM (inactive) | > 100 µM (inactive) | > 100 µM (inactive) | > 100 µM (inactive) | > 100 µM (inactive) | > 100 µM (inactive) | > 100 µM (inactive) | > 100 µM (inactive) | > 100 µM (inactive) | > 100 µM (inactive) | > 100 µM (inactive) | > 100 µM (inactive) | > 100 µM (inactive) | > 100 µM (inactive) | > 100 µM (inactive) | > 100 µM (inactive) | > 100 µM (inactive) | > 100 µM (inactive) |
| NC(Cc1ccc2oc3cc(=O)c4ccccc4c-3nc2c1)C(=O)O (stereo not given) | 11.5 µM (inactive) | 6.73 µM (inactive) | 28.7 µM (inactive) | > 83.4 µM (inactive) | 15.5 µM (inactive) | 50.2 µM (inactive) | 29.3 µM (inactive) | 25.8 µM (inactive) | 22.3 µM (inactive) | 11.2 µM (inactive) | 43 µM (inactive) | 4.4 µM (inactive) | 39.2 µM (inactive) | > 83 µM (inactive) | 38.5 µM (inactive) | 4.31 µM (inactive) | 16 µM (inactive) | 68.2 µM (inactive) | 13.4 µM (inactive) | 26.2 µM (inactive) |
| Cc1ccc2c(O)cc(-c3cccs3)nc2n1 | 5.08 µM (inactive) | 1.47 µM (inactive) | 16.2 µM (inactive) | 57 µM (inactive) | 30.5 µM (inactive) | 15.1 µM (inactive) | 3.07 µM (inactive) | 7.33 µM (inactive) | 17 µM (inactive) | 10.1 µM (inactive) | 49.8 µM (inactive) | 1.58 µM (inactive) | 2.76 µM (inactive) | 11 µM (inactive) | 6.64 µM (inactive) | 7.71 µM (inactive) | 12.9 µM (inactive) | 4.86 µM (inactive) | 11.4 µM (inactive) | 12.1 µM (inactive) |
